Experimental data published in patent publication US12269813B2, “Crystalline form of 1-(1-oxo-1,2-dihydroisoquinolin-5-yl)-5-(trifluoromethyl)-N-(2-(trifluoromethyl)pyridin-4-yl)-1H-pyrazole-4-carboxamide monohydrate” (Janssen Pharmaceutica NV, priority 2019, dated 2025).
Entries after “also recorded” stand apart in the source; their conditions may differ.

What was measured:
[1] = Moisture sorption analysis (dynamic vapor sorption, DVS); assay type: physicochemical; settings: for hygroscopic behaviour: DVS, 0 to 95% RH at 25° C.; for loss of hydration water at low relative humidity: RH of 20% or less
Method: The moisture sorption analysis (DVS) was performed using a Surface Measurement Systems Advantage-1 dynamic vapor sorption apparatus. The moisture profile was evaluated by monitoring vapor adsorption/desorption over the range of 0 to 95% relative humidity at 25° C. The moisture profile consisted of 2 cycles of vapor adsorption/desorption.

[2] = Physical stability study with respect to water loss or uptake (water content by coulometric Karl Fischer); assay type: physicochemical
Method: The physical stability of Compound A monohydrate, Form III with respect to water loss or uptake was tested.
For the initial study, 0.5 g samples of monohydrate Form III were placed in double antistatic colourless LDPE bags and sealed.
For the long-term study (stability after 1 month and 3 months), 1.5 g samples of monohydrate Form III were placed in double antistatic colourless LDPE bags and sealed. The samples were stored at 30±2° C./75±5% RH and 40±2° C./75±5% RH in cardboard drums.
For the photostability study, 1.5 g of monohydrate Form III was placed into a petri dish and spread into a layer of no more than 3 mm thick. The petri dish was covered with quartz coverslips and sealed with parafilm. The photostability testing was carried out in line with ICH Q1B option 2 (ICH Harmonised Tripartite Guideline, Stability testing: Photostability testing of new drug substances and products, Q1B, Step 4 version, 6 Nov. 1996). Photostability samples were stored under separate lamps emitting visible and UV-A light, such that the total exposure was not less than 1.2 million lux hours and 200 Watt hours/m^2, respectively.
The water content of each of the samples was determined using a vaporized coulometric Karl Fischer method, in accordance with the US Pharmacopeia (USP <921> method IC; most recently appeared in Pharmacopeial Forum: Volume No. 38(1); Page information USP42/NF37-7092) and European Pharmacopeia 2.5.32 (Edition 10.0).

What does the source list for `O=C(Nc1ccnc(C(F)(F)F)c1)c1cnn(-c2cccc3c(=O)[nH]ccc23)c1C(F)(F)F` [Form I, 1-(1-oxo-1,2-dihydroisoquinolin-5-yl)-5-(trifluoromethyl)-N-[2-(trifluoromethyl)pyridin-4-yl]-1H-pyrazole-4-carboxamide (Compound A) hydrate, Form I]?
hygroscopic behaviour [1]: hygroscopic; loss of hydration water at low relative humidity [1]: lost at RH of 20% and less; solid-state form change after the DVS test (XRPD pattern and IR spectrum) ([1]; fraction obtained after the DVS test vs starting material): No indication of a solid-state form change; moisture adsorbed ([1]; humidity range 0-20% RH): 4.1-4.2%; moisture adsorption and desorption ([1]; humidity range 20-95% RH, slow and reversible): 1.8%; weight loss during the initial drying step (DVS change in mass plot) ([1]; initial drying step): ~2.7%

Which results are given for `O=C(Nc1ccnc(C(F)(F)F)c1)c1cnn(-c2cccc3c(=O)[nH]ccc23)c1C(F)(F)F` [Form III, 1-(1-oxo-1,2 dihydroisoquinolin-5-yl)-5-(trifluoromethyl)-N-(2-(trifluoromethyl)pyridin-4-yl)-1H-pyrazole-4-carboxamide (Compound A) monohydrate]?
Water content (%) ([2]; 30° C./75% RH, 1 month): 3.3%; Water content (%) ([2]; 30° C./75% RH, 3 months): 3.8%; Water content (%) ([2]; 40° C./75% RH, 1 month): 3.3%; Water content (%) ([2]; 40° C./75% RH, 3 months): 3.2%; Water content (%) ([2]; Initial): 3.4%; hygroscopic character concluded from the stability study ([2]; Table 3 storage conditions): non-hygroscopic; Water content (%) ([2]; photostability, 1 × ICH option 2): 3.4%; hygroscopic behaviour ([1]; monohydrate): non-hygroscopic; loss of hydration water at low relative humidity ([1]; monohydrate): does not lose water; also recorded: avoids loss of water; water uptake ([1]; at 80% relative humidity): less than 0.2%
